# Assay results from the kinase profiling compilation of Christmann-Franck et al. (2016).
# What was measured:
# Test in all cases: radiometric filter-binding kinase assay
# PIM2 (human) = PIM2 (human) (UniProt Q9P1W9)
# ROCK2 (rat) = conditions: accession and sequence are those of the human protein
# [1] = test system: AKT1 (human), P31749 [S473D]
# MAPK14 (human) = MAPK14 (human) (UniProt Q16539)
# PLK1 (human) = PLK1 (human) (UniProt P53350)
# CLK2 (human) = CLK2 (human) (UniProt P49760)
# STK3 (human) = STK3 (human) (UniProt Q13188)
# IKBKB (human) = IKBKB (human) (UniProt O14920)
# PAK4 (human) = PAK4 (human) (UniProt O96013)
# MAP3K11 (human) = MAP3K11 (human) (UniProt Q16584)
# DYRK3 (human) = DYRK3 (human) (UniProt O43781)
# BRSK2 (human) = BRSK2 (human) (UniProt Q8IWQ3)
# DAPK1 (human) = DAPK1 (human) (UniProt P53355)
# RPS6KA1 KD1 KD2 (human) = RPS6KA1 KD1 KD2 (human) (UniProt Q15418)
# MAPKAPK3 (human) = MAPKAPK3 (human) (UniProt Q16644)
# PIM3 (human) = PIM3 (human) (UniProt Q86V86)
# [2] = test system: RPS6KB1 (human), P23443 [T412E]
# DYRK1A (human) = DYRK1A (human) (UniProt Q13627)
# MAP2K6 (human) = MAP2K6 (human) (UniProt P52564)
# MAPK12 (human) = MAPK12 (human) (UniProt P53778)
# IKBKE (human) = IKBKE (human) (UniProt Q14164)
# RPS6KA3 KD1 KD2 (human) = RPS6KA3 KD1 KD2 (human) (UniProt P51812)
# [3] = test system: SGK1 (human), O00141 [S422D]
# MAPKAPK5 (human) = MAPKAPK5 (human) (UniProt Q8IW41)
# NTRK1 (human) = NTRK1 (human) (UniProt P04629)
# IRAK4 (human) = IRAK4 (human) (UniProt Q9NWZ3)
# TBK1 (human) = TBK1 (human) (UniProt Q9UHD2)
# CSNK2A1 (human) = CSNK2A1 (human) (UniProt P68400)
# PIM1 (human) = PIM1 (human) (UniProt P11309)
# MKNK2 (human) = MKNK2 (human) (UniProt Q9HBH9)
# MAPK8 (human) = MAPK8 (human) (UniProt P45983)
# MAP3K7 TAB1 (human) = MAP3K7 TAB1 (human) (UniProt Q15750+O43318)
# MAPK3 (human) = MAPK3 (human) (UniProt P27361)
# MAPK11 (human) = MAPK11 (human) (UniProt Q15759)
# EPHB3 (human) = EPHB3 (human) (UniProt P54753)
# Chain of MKNK2 (human) (Q9HBH9 whole entry, looked up): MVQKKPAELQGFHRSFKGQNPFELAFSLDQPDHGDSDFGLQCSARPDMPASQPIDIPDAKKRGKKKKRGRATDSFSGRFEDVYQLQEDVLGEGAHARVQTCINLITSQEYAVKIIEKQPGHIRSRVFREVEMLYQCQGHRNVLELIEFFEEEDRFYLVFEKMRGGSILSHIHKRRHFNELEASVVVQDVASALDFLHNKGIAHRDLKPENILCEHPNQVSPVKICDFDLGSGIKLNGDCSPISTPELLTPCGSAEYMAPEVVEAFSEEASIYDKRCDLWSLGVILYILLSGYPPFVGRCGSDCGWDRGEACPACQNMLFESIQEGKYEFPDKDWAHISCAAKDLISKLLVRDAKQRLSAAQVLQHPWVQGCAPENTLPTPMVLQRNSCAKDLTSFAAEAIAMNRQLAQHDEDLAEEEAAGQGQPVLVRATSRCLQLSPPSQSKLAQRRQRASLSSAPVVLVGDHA
# Chain of MAP2K6 (human) (P52564 whole entry, looked up): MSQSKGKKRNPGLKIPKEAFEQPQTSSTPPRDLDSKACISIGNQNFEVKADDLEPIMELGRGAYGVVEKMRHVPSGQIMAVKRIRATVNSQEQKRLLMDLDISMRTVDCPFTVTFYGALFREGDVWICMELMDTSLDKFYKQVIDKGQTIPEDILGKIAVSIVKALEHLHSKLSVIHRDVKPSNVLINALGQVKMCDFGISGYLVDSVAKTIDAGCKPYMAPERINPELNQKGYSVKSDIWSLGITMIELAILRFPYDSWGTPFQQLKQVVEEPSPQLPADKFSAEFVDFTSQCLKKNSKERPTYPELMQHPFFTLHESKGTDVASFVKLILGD
# Chain of MAPKAPK3 (human) (Q16644 whole entry, looked up): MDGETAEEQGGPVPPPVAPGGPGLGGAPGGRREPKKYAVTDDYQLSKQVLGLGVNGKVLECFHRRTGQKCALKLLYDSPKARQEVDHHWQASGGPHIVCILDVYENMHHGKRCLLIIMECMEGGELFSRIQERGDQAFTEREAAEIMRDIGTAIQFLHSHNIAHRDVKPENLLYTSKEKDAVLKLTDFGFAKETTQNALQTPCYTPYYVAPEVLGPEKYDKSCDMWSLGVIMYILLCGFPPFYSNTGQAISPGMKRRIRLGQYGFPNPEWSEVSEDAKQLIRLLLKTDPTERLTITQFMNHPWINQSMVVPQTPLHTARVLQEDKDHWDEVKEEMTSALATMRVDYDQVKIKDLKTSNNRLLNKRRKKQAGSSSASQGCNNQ
# Chain of MAPK3 (human) (P27361 whole entry, looked up): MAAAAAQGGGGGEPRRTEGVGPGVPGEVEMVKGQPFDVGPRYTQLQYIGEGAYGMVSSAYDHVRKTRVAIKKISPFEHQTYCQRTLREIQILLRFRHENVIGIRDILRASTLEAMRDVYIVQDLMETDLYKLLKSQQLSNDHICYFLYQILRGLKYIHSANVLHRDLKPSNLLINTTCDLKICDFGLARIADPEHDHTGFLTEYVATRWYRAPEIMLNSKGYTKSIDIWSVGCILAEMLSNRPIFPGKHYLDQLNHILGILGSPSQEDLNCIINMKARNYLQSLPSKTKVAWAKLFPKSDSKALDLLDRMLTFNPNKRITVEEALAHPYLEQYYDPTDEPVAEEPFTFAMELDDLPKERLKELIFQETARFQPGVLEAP
# Chain of PIM1 (human) (P11309 whole entry, looked up): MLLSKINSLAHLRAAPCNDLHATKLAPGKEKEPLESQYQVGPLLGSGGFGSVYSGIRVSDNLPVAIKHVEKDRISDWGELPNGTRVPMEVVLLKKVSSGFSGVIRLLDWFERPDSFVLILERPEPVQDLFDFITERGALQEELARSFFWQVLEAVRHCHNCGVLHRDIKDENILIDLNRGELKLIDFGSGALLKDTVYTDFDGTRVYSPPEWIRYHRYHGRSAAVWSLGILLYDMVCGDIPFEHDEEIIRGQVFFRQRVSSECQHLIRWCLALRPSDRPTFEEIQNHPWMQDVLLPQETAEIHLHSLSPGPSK
# Chain of RPS6KB1 (human), P23443 [T412E] (P23443 whole entry T412E, looked up): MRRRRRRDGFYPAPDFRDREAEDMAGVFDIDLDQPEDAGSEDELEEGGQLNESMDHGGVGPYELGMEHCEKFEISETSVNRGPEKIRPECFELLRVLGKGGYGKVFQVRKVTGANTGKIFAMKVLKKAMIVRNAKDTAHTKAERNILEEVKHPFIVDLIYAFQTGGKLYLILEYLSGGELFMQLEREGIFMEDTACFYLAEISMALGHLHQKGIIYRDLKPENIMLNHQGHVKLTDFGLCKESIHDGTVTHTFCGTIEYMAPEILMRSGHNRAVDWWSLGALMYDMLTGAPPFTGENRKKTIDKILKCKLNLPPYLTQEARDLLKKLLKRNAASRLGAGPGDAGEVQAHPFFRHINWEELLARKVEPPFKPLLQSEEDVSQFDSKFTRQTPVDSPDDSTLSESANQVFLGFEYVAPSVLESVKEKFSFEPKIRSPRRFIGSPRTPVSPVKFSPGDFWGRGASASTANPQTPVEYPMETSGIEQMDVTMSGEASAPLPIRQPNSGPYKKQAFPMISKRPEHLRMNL
# Chain of STK3 (human) (Q13188 whole entry, looked up): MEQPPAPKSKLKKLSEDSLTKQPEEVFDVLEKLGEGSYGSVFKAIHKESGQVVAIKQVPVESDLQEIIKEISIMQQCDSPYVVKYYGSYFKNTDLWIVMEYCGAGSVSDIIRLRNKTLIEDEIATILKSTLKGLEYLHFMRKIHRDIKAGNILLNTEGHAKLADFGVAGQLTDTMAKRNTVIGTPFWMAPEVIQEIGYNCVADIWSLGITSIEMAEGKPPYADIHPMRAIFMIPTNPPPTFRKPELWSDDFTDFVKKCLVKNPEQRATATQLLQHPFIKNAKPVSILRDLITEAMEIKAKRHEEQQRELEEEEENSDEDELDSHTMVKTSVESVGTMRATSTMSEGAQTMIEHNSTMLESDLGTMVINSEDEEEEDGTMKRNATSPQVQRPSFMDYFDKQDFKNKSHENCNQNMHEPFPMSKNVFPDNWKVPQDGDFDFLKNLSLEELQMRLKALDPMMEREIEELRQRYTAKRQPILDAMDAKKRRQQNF
# Chain of PAK4 (human) (O96013 whole entry, looked up): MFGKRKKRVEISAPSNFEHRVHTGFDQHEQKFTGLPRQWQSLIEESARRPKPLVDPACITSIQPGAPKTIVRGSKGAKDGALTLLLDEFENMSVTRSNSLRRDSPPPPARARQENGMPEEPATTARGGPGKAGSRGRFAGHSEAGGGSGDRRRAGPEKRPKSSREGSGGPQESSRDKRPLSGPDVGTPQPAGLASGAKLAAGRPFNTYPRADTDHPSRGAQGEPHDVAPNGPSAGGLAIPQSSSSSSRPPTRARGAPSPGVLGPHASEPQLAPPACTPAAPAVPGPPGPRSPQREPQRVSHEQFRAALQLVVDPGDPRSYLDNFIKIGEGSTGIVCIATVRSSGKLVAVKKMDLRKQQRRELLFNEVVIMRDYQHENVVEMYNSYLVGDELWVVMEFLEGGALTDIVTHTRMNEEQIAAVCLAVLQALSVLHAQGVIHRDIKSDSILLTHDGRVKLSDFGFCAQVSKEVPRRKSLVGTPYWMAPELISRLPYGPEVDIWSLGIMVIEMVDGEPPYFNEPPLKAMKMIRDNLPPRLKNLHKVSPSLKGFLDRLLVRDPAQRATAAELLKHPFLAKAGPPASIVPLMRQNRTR
# Chain of IRAK4 (human) (Q9NWZ3 whole entry, looked up): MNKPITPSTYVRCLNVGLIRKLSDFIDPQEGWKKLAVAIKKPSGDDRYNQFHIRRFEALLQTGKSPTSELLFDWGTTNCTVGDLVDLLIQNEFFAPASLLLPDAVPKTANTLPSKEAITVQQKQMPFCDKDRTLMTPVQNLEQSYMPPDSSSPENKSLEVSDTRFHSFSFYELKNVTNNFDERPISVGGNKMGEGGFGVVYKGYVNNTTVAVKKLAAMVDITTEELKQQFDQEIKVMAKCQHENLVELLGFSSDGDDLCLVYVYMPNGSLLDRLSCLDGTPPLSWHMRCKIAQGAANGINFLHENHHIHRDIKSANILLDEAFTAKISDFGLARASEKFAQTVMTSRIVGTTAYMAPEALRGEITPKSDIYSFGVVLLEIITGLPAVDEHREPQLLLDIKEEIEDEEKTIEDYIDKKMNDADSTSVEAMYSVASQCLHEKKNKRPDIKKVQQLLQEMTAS
# Chain of MAP3K11 (human) (Q16584 whole entry, looked up): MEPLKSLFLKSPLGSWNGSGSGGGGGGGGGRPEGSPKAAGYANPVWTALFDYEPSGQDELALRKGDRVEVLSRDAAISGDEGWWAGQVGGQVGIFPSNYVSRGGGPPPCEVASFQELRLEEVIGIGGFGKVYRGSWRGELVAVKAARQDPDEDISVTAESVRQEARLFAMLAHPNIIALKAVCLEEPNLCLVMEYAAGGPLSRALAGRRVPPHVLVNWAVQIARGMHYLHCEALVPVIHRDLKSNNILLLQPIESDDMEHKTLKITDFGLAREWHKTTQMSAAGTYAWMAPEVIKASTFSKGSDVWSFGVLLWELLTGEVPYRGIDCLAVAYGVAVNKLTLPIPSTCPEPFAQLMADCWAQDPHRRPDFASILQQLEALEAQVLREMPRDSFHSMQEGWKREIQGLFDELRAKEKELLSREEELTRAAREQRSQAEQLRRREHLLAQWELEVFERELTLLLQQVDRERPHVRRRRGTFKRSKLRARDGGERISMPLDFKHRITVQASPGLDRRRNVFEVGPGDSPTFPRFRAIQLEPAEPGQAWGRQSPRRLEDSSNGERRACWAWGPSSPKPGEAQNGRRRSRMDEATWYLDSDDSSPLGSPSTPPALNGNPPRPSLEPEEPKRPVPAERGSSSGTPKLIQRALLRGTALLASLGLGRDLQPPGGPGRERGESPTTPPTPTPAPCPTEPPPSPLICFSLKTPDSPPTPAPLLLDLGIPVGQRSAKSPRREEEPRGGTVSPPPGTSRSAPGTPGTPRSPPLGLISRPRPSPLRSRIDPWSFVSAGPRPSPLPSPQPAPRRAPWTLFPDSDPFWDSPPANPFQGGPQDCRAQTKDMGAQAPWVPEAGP
smiles,measurement,setting,value
CCNc1nc(Nc2cc(F)c(C(=O)N3CCOCC3)cc2OC)ncc1C(F)(F)F,residual activity,PIM2 (human); compound 10.0 µM,93%
same,residual activity,ROCK2 (rat); compound 1.0 µM,85%
same,residual activity,ROCK2 (rat); compound 10.0 µM,72%
same,residual activity,[1]; compound 1.0 µM,102%
same,residual activity,[1]; compound 10.0 µM,87%
same,residual activity,MAPK14 (human); compound 1.0 µM,89%
same,residual activity,MAPK14 (human); compound 10.0 µM,101%
same,residual activity,PLK1 (human); compound 1.0 µM,76%
same,residual activity,PLK1 (human); compound 10.0 µM,39%
same,residual activity,CLK2 (human); compound 1.0 µM,50%
same,residual activity,CLK2 (human); compound 10.0 µM,9%
same,residual activity,STK3 (human); compound 1.0 µM,85%
same,residual activity,STK3 (human); compound 10.0 µM,73%
same,residual activity,IKBKB (human); compound 1.0 µM,91%
same,residual activity,IKBKB (human); compound 10.0 µM,93%
same,residual activity,PAK4 (human); compound 1.0 µM,92%
same,residual activity,PAK4 (human); compound 10.0 µM,32%
same,residual activity,MAP3K11 (human); compound 1.0 µM,23%
same,residual activity,MAP3K11 (human); compound 10.0 µM,5%
same,residual activity,DYRK3 (human); compound 1.0 µM,96%
same,residual activity,DYRK3 (human); compound 10.0 µM,58%
same,residual activity,BRSK2 (human); compound 1.0 µM,80%
same,residual activity,BRSK2 (human); compound 10.0 µM,38%
same,residual activity,DAPK1 (human); compound 1.0 µM,43%
same,residual activity,DAPK1 (human); compound 10.0 µM,9%
same,residual activity,RPS6KA1 KD1 KD2 (human); compound 1.0 µM,21%
same,residual activity,RPS6KA1 KD1 KD2 (human); compound 10.0 µM,8%
same,residual activity,MAPKAPK3 (human); compound 1.0 µM,91%
same,residual activity,MAPKAPK3 (human); compound 10.0 µM,108%
same,residual activity,PIM3 (human); compound 1.0 µM,105%
same,residual activity,PIM3 (human); compound 10.0 µM,76%
same,residual activity,[2]; compound 1.0 µM,89%
same,residual activity,[2]; compound 10.0 µM,60%
same,residual activity,DYRK1A (human); compound 1.0 µM,85%
same,residual activity,DYRK1A (human); compound 10.0 µM,48%
same,residual activity,MAP2K6 (human); compound 1.0 µM,72%
same,residual activity,MAP2K6 (human); compound 10.0 µM,31%
same,residual activity,MAPK12 (human); compound 1.0 µM,99%
same,residual activity,MAPK12 (human); compound 10.0 µM,102%
same,residual activity,IKBKE (human); compound 1.0 µM,78%
same,residual activity,IKBKE (human); compound 10.0 µM,23%
same,residual activity,RPS6KA3 KD1 KD2 (human); compound 1.0 µM,34%
same,residual activity,RPS6KA3 KD1 KD2 (human); compound 10.0 µM,9%
same,residual activity,[3]; compound 1.0 µM,72%
same,residual activity,[3]; compound 10.0 µM,59%
same,residual activity,MAPKAPK5 (human); compound 1.0 µM,80%
same,residual activity,MAPKAPK5 (human); compound 10.0 µM,55%
same,residual activity,NTRK1 (human); compound 1.0 µM,81%
same,residual activity,NTRK1 (human); compound 10.0 µM,63%
same,residual activity,IRAK4 (human); compound 1.0 µM,103%
same,residual activity,IRAK4 (human); compound 10.0 µM,83%
same,residual activity,TBK1 (human); compound 1.0 µM,62%
same,residual activity,TBK1 (human); compound 10.0 µM,17%
same,residual activity,CSNK2A1 (human); compound 1.0 µM,95%
same,residual activity,CSNK2A1 (human); compound 10.0 µM,82%
same,residual activity,PIM1 (human); compound 1.0 µM,94%
same,residual activity,PIM1 (human); compound 10.0 µM,99%
same,residual activity,MKNK2 (human); compound 1.0 µM,62%
same,residual activity,MKNK2 (human); compound 10.0 µM,23%
same,residual activity,MAPK8 (human); compound 1.0 µM,87%
same,residual activity,MAPK8 (human); compound 10.0 µM,50%
same,residual activity,MAP3K7 TAB1 (human); compound 1.0 µM,17%
same,residual activity,MAP3K7 TAB1 (human); compound 10.0 µM,2%
same,residual activity,MAPK3 (human); compound 1.0 µM,85%
same,residual activity,MAPK3 (human); compound 10.0 µM,54%
same,residual activity,MAPK11 (human); compound 1.0 µM,98%
same,residual activity,MAPK11 (human); compound 10.0 µM,91%
same,residual activity,EPHB3 (human); compound 10.0 µM,83%
FC(F)(F)c1ccc(-c2ccc(Oc3cncc4sc(-c5nn[nH]n5)cc34)cc2)cc1,residual activity,PIM2 (human); compound 1.0 µM,87%
same,residual activity,PIM2 (human); compound 10.0 µM,36%
same,residual activity,ROCK2 (rat); compound 1.0 µM,90%
same,residual activity,ROCK2 (rat); compound 10.0 µM,93%
same,residual activity,[1]; compound 1.0 µM,99%
same,residual activity,[1]; compound 10.0 µM,73%
same,residual activity,MAPK14 (human); compound 1.0 µM,102%
same,residual activity,MAPK14 (human); compound 10.0 µM,107%
same,residual activity,PLK1 (human); compound 1.0 µM,83%
same,residual activity,PLK1 (human); compound 10.0 µM,16%
same,residual activity,CLK2 (human); compound 1.0 µM,73%
same,residual activity,CLK2 (human); compound 10.0 µM,14%
same,residual activity,STK3 (human); compound 1.0 µM,93%
same,residual activity,STK3 (human); compound 10.0 µM,76%
same,residual activity,IKBKB (human); compound 1.0 µM,89%
same,residual activity,IKBKB (human); compound 10.0 µM,56%
same,residual activity,PAK4 (human); compound 1.0 µM,121%
same,residual activity,PAK4 (human); compound 10.0 µM,97%
same,residual activity,MAP3K11 (human); compound 1.0 µM,91%
same,residual activity,MAP3K11 (human); compound 10.0 µM,61%
same,residual activity,DYRK3 (human); compound 1.0 µM,18%
same,residual activity,DYRK3 (human); compound 10.0 µM,3%
same,residual activity,BRSK2 (human); compound 1.0 µM,115%
same,residual activity,BRSK2 (human); compound 10.0 µM,105%
same,residual activity,DAPK1 (human); compound 1.0 µM,47%
same,residual activity,DAPK1 (human); compound 10.0 µM,17%
same,residual activity,RPS6KA1 KD1 KD2 (human); compound 1.0 µM,122%
same,residual activity,RPS6KA1 KD1 KD2 (human); compound 10.0 µM,57%
same,residual activity,MAPKAPK3 (human); compound 1.0 µM,109%
same,residual activity,MAPKAPK3 (human); compound 10.0 µM,95%
same,residual activity,PIM3 (human); compound 1.0 µM,74%
same,residual activity,PIM3 (human); compound 10.0 µM,31%
same,residual activity,[2]; compound 1.0 µM,98%
same,residual activity,[2]; compound 10.0 µM,50%
same,residual activity,DYRK1A (human); compound 1.0 µM,27%
same,residual activity,DYRK1A (human); compound 10.0 µM,5%
same,residual activity,MAP2K6 (human); compound 1.0 µM,94%
same,residual activity,MAP2K6 (human); compound 10.0 µM,100%
same,residual activity,MAPK12 (human); compound 1.0 µM,91%
same,residual activity,MAPK12 (human); compound 10.0 µM,73%
same,residual activity,IKBKE (human); compound 1.0 µM,109%
same,residual activity,IKBKE (human); compound 10.0 µM,60%
same,residual activity,RPS6KA3 KD1 KD2 (human); compound 1.0 µM,132%
same,residual activity,RPS6KA3 KD1 KD2 (human); compound 10.0 µM,88%
same,residual activity,[3]; compound 1.0 µM,93%
same,residual activity,[3]; compound 10.0 µM,39%
same,residual activity,MAPKAPK5 (human); compound 1.0 µM,110%
same,residual activity,MAPKAPK5 (human); compound 10.0 µM,67%
same,residual activity,NTRK1 (human); compound 1.0 µM,104%
same,residual activity,NTRK1 (human); compound 10.0 µM,71%
same,residual activity,IRAK4 (human); compound 1.0 µM,90%
same,residual activity,IRAK4 (human); compound 10.0 µM,88%
same,residual activity,TBK1 (human); compound 1.0 µM,109%
same,residual activity,TBK1 (human); compound 10.0 µM,63%
same,residual activity,CSNK2A1 (human); compound 1.0 µM,20%
same,residual activity,CSNK2A1 (human); compound 10.0 µM,4%
same,residual activity,PIM1 (human); compound 1.0 µM,70%
same,residual activity,PIM1 (human); compound 10.0 µM,17%
same,residual activity,MKNK2 (human); compound 1.0 µM,105%
same,residual activity,MKNK2 (human); compound 10.0 µM,64%
same,residual activity,MAPK8 (human); compound 1.0 µM,103%
same,residual activity,MAPK8 (human); compound 10.0 µM,101%
same,residual activity,MAP3K7 TAB1 (human); compound 1.0 µM,104%
same,residual activity,MAP3K7 TAB1 (human); compound 10.0 µM,67%
same,residual activity,MAPK3 (human); compound 1.0 µM,101%
same,residual activity,MAPK3 (human); compound 10.0 µM,82%
same,residual activity,MAPK11 (human); compound 1.0 µM,102%
same,residual activity,MAPK11 (human); compound 10.0 µM,100%
same,residual activity,EPHB3 (human); compound 1.0 µM,122%
same,residual activity,EPHB3 (human); compound 10.0 µM,104%
